According to ChEMBL document CHEMBL1201862, “PubChem BioAssay data set” (2004):
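Five concentrations, 48 hours, 96-well plates. The concentration for 50% growth inhibition is given as GI50.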 Activity calls are given as the source filed them. No stated cut-off is given here; in the data, active = GI50 up to about 1.1 µM and inactive = higher.

Columns and labels:
Experiment in all cases: NCI anticancer screen, dose series, 48 h
SNB-75 = system: SNB-75
COLO 205 = system: COLO 205
MCF7 = system: MCF7
MDA-N = system: MDA-N
SK-MEL-2 = system: SK-MEL-2
HT-29 = system: HT-29
RPMI-8226 = system: RPMI-8226
SNB-19 = system: SNB-19
MDA-MB-435 = system: MDA-MB-435
SK-OV-3 = system: SK-OV-3
NCI-H23 = system: NCI-H23
CAKI-1 = system: CAKI-1
IGROV-1 = system: IGROV-1
Hs-578T = system: Hs-578T
HCT-116 = system: HCT-116
HOP-62 = system: HOP-62
U-251 = system: U-251
SF-295 = system: SF-295
SN12C = system: SN12C
LOX IMVI = system: LOX IMVI

SMILES | GI50 (SNB-75) | GI50 (COLO 205) | GI50 (MCF7) | GI50 (MDA-N) | GI50 (SK-MEL-2) | GI50 (HT-29) | GI50 (RPMI-8226) | GI50 (SNB-19) | GI50 (MDA-MB-435) | GI50 (SK-OV-3) | GI50 (NCI-H23) | GI50 (CAKI-1) | GI50 (IGROV-1) | GI50 (Hs-578T) | GI50 (HCT-116) | GI50 (HOP-62) | GI50 (U-251) | GI50 (SF-295) | GI50 (SN12C) | GI50 (LOX IMVI)
C[C@@H]1OC(=O)C[C@H]2CC(=O)N(CCc3cn(S(=O)(=O)C(F)(F)F)c4ccccc34)C[C@@H]21 | > 100 µM (inactive) | > 100 µM (inactive) | > 100 µM (inactive) | > 100 µM (inactive) | > 100 µM (inactive) | > 100 µM (inactive) | > 100 µM (inactive) | > 100 µM (inactive) | > 100 µM (inactive) | > 100 µM (inactive) | > 100 µM (inactive) | > 100 µM (inactive) | > 100 µM (inactive) | > 100 µM (inactive) | > 100 µM (inactive) | > 100 µM (inactive) | > 100 µM (inactive) | > 100 µM (inactive) |  | 
CCOC(=O)[C@@H]1C[C@@H]1c1ccc(O)c(O)c1 |  | 27.4 µM (inactive) | 16.9 µM (inactive) | 17.1 µM (inactive) | 29.7 µM (inactive) | 50.2 µM (inactive) | 18.1 µM (inactive) | 49 µM (inactive) | 16.9 µM (inactive) | 44.8 µM (inactive) | 43.4 µM (inactive) | 38.1 µM (inactive) | 35.3 µM (inactive) | 43.1 µM (inactive) | 16.3 µM (inactive) | 17.6 µM (inactive) | 72.1 µM (inactive) | 59.7 µM (inactive) | 78.2 µM (inactive) | 
Cn1c(COC(=O)Nc2ccccc2)c(COC(=O)Nc2ccccc2)c2ccc3cc(Cl)c(Cl)cc3c21 | 8.53 µM (inactive) | 3.39 µM (inactive) | 2.14 µM (inactive) | 8.07 µM (inactive) | 4.31 µM (inactive) | 8.02 µM (inactive) |  | 4.24 µM (inactive) | 7.87 µM (inactive) | 20.9 µM (inactive) | 2.63 µM (inactive) | 1.06 µM (active) | 8.95 µM (inactive) | 5.73 µM (inactive) | 9.66 µM (inactive) |  | 1.95 µM (inactive) | 18.7 µM (inactive) | 4.07 µM (inactive) | 2.52 µM (inactive)
CCOc1ccc2c(c1)C(/C(C(Cl)=C(Cl)Cl)=[N+](/[O-])OC(=O)c1ccccc1)=N2 | 56.8 µM (inactive) | 40.1 µM (inactive) | 39 µM (inactive) | 37 µM (inactive) | 85.9 µM (inactive) | 61.2 µM (inactive) |  | 93.1 µM (inactive) | 29.6 µM (inactive) | > 100 µM (inactive) | 48.6 µM (inactive) | 32.6 µM (inactive) |  | 52.8 µM (inactive) | 46 µM (inactive) | 65.8 µM (inactive) | 46.7 µM (inactive) | 49.7 µM (inactive) | 78.9 µM (inactive) | 57.9 µM (inactive)
C=CCCC1CCCCNC1=S (configuration not stated) |  | > 10 µM (inactive) | > 10 µM (inactive) | > 10 µM (inactive) | > 10 µM (inactive) | > 10 µM (inactive) | > 10 µM (inactive) | > 10 µM (inactive) | > 10 µM (inactive) | > 10 µM (inactive) | > 10 µM (inactive) | > 10 µM (inactive) | > 10 µM (inactive) | > 10 µM (inactive) | > 10 µM (inactive) | > 10 µM (inactive) | > 10 µM (inactive) | > 10 µM (inactive) | > 10 µM (inactive) | > 10 µM (inactive)
O=C(Nc1ccc(Br)c2ccccc12)c1ccc2ccccc2c1O | 2.3 µM (inactive) | 2.11 µM (inactive) | 2.73 µM (inactive) | 1.7 µM (inactive) | 0.597 µM (active) | 3.67 µM (inactive) |  | 4.17 µM (inactive) |  | 2.75 µM (inactive) | 1.9 µM (inactive) | 3.95 µM (inactive) | 2.9 µM (inactive) | 2.79 µM (inactive) | 2.85 µM (inactive) | 2.32 µM (inactive) | 1.73 µM (inactive) | 2.05 µM (inactive) | 3.39 µM (inactive) | 
CC(C)(C)OC(=O)/C=C/[C@@H](CCC(=O)/C=C/[C@H](/C=C\CCCC(=O)O)NC1(c2ccccc2)c2ccccc2-c2ccccc21)O[Si](C)(C)C(C)(C)C |  | 21.5 µM (inactive) | 15.9 µM (inactive) | 17.1 µM (inactive) | 15.4 µM (inactive) | 14.7 µM (inactive) | 10.5 µM (inactive) | 20.6 µM (inactive) | 17.8 µM (inactive) | 46.6 µM (inactive) | 16.3 µM (inactive) | 17.9 µM (inactive) | 16.5 µM (inactive) | 38.9 µM (inactive) | 13.6 µM (inactive) | 17.5 µM (inactive) | 16.3 µM (inactive) | 15.5 µM (inactive) | 15.8 µM (inactive) | 13.8 µM (inactive)
OCCCN=C1CCCCC1 |  | > 100 µM (inactive) | > 100 µM (inactive) | > 100 µM (inactive) | 56.8 µM (inactive) | > 100 µM (inactive) | > 100 µM (inactive) | > 100 µM (inactive) | > 100 µM (inactive) | > 100 µM (inactive) | > 100 µM (inactive) | > 100 µM (inactive) | > 100 µM (inactive) | 69.8 µM (inactive) | > 100 µM (inactive) | > 100 µM (inactive) | > 100 µM (inactive) | > 100 µM (inactive) | > 100 µM (inactive) | > 100 µM (inactive)
CC(NC(=O)Cc1ccccc1)NC(=O)C(C)C(=O)NCc1ccccc1 (configuration not stated) | 38.8 µM (inactive) | > 100 µM (inactive) | > 100 µM (inactive) | > 100 µM (inactive) | 75.3 µM (inactive) | > 100 µM (inactive) | > 100 µM (inactive) | 23.7 µM (inactive) | > 100 µM (inactive) | 53.6 µM (inactive) | > 100 µM (inactive) | 81.7 µM (inactive) | 50.9 µM (inactive) | 30.3 µM (inactive) | > 100 µM (inactive) |  | 50.6 µM (inactive) | 21.7 µM (inactive) | 53.5 µM (inactive) | 
Cc1ccc(NC(=O)CC(=O)N2N=C(N3CCCCC3)CC2c2ccccc2)cc1 (configuration not stated) | > 100 µM (inactive) | > 100 µM (inactive) | > 100 µM (inactive) | > 100 µM (inactive) | > 100 µM (inactive) | > 100 µM (inactive) |  | > 100 µM (inactive) | > 100 µM (inactive) |  | > 100 µM (inactive) | > 100 µM (inactive) | > 100 µM (inactive) | > 100 µM (inactive) | > 100 µM (inactive) | > 100 µM (inactive) | > 100 µM (inactive) | > 100 µM (inactive) | > 100 µM (inactive) | > 100 µM (inactive)
COC(=O)C(Cc1ccccc1)NP(=O)(O)OCC1OC(n2cc(Br)c(=O)[nH]c2=O)CC1O (configuration not stated) | > 100 µM (inactive) | > 100 µM (inactive) | > 100 µM (inactive) | > 100 µM (inactive) | > 100 µM (inactive) | > 100 µM (inactive) |  | > 100 µM (inactive) | > 100 µM (inactive) | > 100 µM (inactive) | > 100 µM (inactive) |  | > 100 µM (inactive) | > 100 µM (inactive) | > 100 µM (inactive) | > 100 µM (inactive) | > 100 µM (inactive) | > 100 µM (inactive) | > 100 µM (inactive) | > 100 µM (inactive)
O=C1c2ccccc2C(=O)c2c(NC(=O)C3CC3)ccc(NC(=O)C3CC3)c21 |  | > 100 µM (inactive) | 83.2 µM (inactive) | > 100 µM (inactive) | > 100 µM (inactive) | > 100 µM (inactive) | > 100 µM (inactive) | > 100 µM (inactive) | > 100 µM (inactive) |  | > 100 µM (inactive) |  | > 100 µM (inactive) | > 100 µM (inactive) | > 100 µM (inactive) | > 100 µM (inactive) | 91.2 µM (inactive) | 33.4 µM (inactive) | > 100 µM (inactive) | > 100 µM (inactive)
COC(=O)c1cc(-c2c[nH]cc2C(=O)OCc2ccccc2)cn1S(=O)(=O)c1ccc(C)cc1 | > 100 µM (inactive) | > 100 µM (inactive) | 22.3 µM (inactive) | > 100 µM (inactive) | > 100 µM (inactive) | > 100 µM (inactive) |  | > 100 µM (inactive) |  | > 100 µM (inactive) | 6.61 µM (inactive) | > 100 µM (inactive) | > 100 µM (inactive) | > 100 µM (inactive) | > 100 µM (inactive) | > 100 µM (inactive) | > 10 µM (inactive) | > 100 µM (inactive) | > 100 µM (inactive) | 22.4 µM (inactive)
NC(CCC(=O)c1ccccn1)C(=O)O (configuration not stated) |  | > 100 µM (inactive) | > 100 µM (inactive) | > 100 µM (inactive) | > 100 µM (inactive) | > 100 µM (inactive) | > 100 µM (inactive) | > 100 µM (inactive) | > 100 µM (inactive) | > 100 µM (inactive) | > 100 µM (inactive) | > 100 µM (inactive) | > 100 µM (inactive) | > 100 µM (inactive) | > 100 µM (inactive) | > 100 µM (inactive) | > 100 µM (inactive) | > 100 µM (inactive) | > 100 µM (inactive) | > 100 µM (inactive)
Cc1nc(-c2cc3cc(Cl)ccc3oc2=O)cc2c1c(=O)oc1ccc(Cl)cc12 |  | > 100 µM (inactive) | > 100 µM (inactive) | > 100 µM (inactive) | > 100 µM (inactive) | > 100 µM (inactive) | > 100 µM (inactive) | > 100 µM (inactive) | > 100 µM (inactive) | > 100 µM (inactive) | > 100 µM (inactive) |  | > 100 µM (inactive) | 72.3 µM (inactive) | > 100 µM (inactive) | > 100 µM (inactive) | > 100 µM (inactive) | > 100 µM (inactive) | > 100 µM (inactive) | > 100 µM (inactive)
